Measurements: PubChem BioAssay AID179 (DTP/NCI, 2004)
Calls of active or inactive are those of the source.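 The calls were made as follows: active = compounds giving half or more protection of infected cells from virus-caused growth loss, again on retest; inactive = the rest.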

Test system: CEM cells HIV-1 protection, formazan growth assay
Assay: NCI AIDS Antiviral Assay
Details: for IC50: measured here: growth of uninfected CEM cells
How it was run: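 CEM (human) cells, HIV-1 infected vs uninfected, 5-point dosing, formazan growth read-out. Retest threshold 50% protection.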

SMILES | EC50 [µM] | IC50 [µM] | outcome
CCOC(=O)c1nc2cc(C(F)(F)F)ccc2nc1Nc1ccc(C(=O)OC)s1 | > 50.1 | 30.9 | –
CC(=O)Oc1cc(OC(C)=O)c(CC=C(C)C)c(-c2cc3ccc(OC(C)=O)c(C/C=C(\C)CCC=C(C)C)c3o2)c1 | > 4.57 | > 4.57 | –
COC(=O)C1=C(OC(C)=O)c2ccccc2CS1 | > 135 | 123 | –
O=C(Nc1nc2ncn(CCNCc3ccccc3)c2c(=O)[nH]1)c1ccccc1 | > 174 | 105 | –
Cc1cc(C2(c3cc(C)c(O)c(Br)c3)OS(=O)(=O)c3ccccc32)cc(Br)c1O | > 200 | > 200 | –
Cn1c(=O)nc2n(CCO)c(-c3ccccc3)c(-c3ccccc3)nc-2c1=O | > 200 | > 200 | –
CNCC(OB(c1ccccc1)c1ccccc1)c1ccccc1 (configuration not stated) | > 200 | 60.3 | –
CCOC(=O)C(=O)Nc1ccc(Cl)cc1C | > 389 | 331 | –
Cc1nnc2n(c1=O)CCN2C | > 200 | > 200 | –
CCCCN(CCCC)CCCCCCCN1CCCc2cc(OC)ccc21 | > 200 | 17.8 | –
O=C(O)c1nn(-c2ccccc2)c2c1CSc1ccccc1-2 | > 200 | 158 | –
CS(=O)CCN=Cc1ccc(N=Nc2ccc(O)cc2)cc1 (configuration not stated) | > 200 | 1.78 | –
C[N+]1(C)C/C(=C\c2ccncc2)C(=O)/C(=C/c2ccncc2)C1 | – | – | inactive
C#CCN(C)Cc1ccccc1 | > 200 | > 200 | –
Nc1ccc2cc(S(=O)(=O)O)cc(O)c2c1N=Nc1ccc(-c2ccc(N=Nc3c(S(=O)(=O)O)cc4cc(S(=O)(=O)O)c(N=Nc5ccc([N+](=O)[O-])cc5)c(N)c4c3O)cc2)cc1 | – | – | inactive
C=CCCCCCCCCCOC1C=CC(O)C(CO)O1 (configuration not stated) | > 200 | 35.5 | –
COC(=O)c1c(C)cccc1CC1Cc2c(C)cccc2C1=O (configuration not stated) | > 200 | 41.7 | –
c1ccc(C(NC2CCCCC2NCCNC2CCCCC2NC(c2ccccc2)(c2ccccc2)c2ccccc2)(c2ccccc2)c2ccccc2)cc1 (configuration not stated) | > 200 | 6.17 | –
O=C1c2ccccc2C(=O)C1(Br)c1ccccc1 | > 200 | > 200 | –
C1CCC2(CC1)C[N+]1(CCCC1)C1(CCC1)O2 | > 200 | > 200 | –
Cc1oc2nc(N(C)C)nc(NN)c2c1C | – | – | inactive
Cc1ccc(-n2c(=S)[nH]c3ccc(C)cc3c2=O)cc1 | > 25.7 | > 25.7 | –
Cc1cn(C2CC(N=[N+]=[N-])C(COC(=O)[C@@]3(O)CC[C@H]4[C@@H]5CCC6=CC(=O)CC[C@]6(C)[C@H]5C(O)C[C@@]43C)O2)c(=O)[nH]c1=O (some centres not stated) | 26.9 | 158 | –

SMILES | EC50 [µM] | IC50 [µM] | outcome
O=c1[nH]c(Nc2ccc(Br)c(C(F)(F)F)c2)nc2nc[nH]c12 | > 151 | 28.2 | –
O=C1CCC(=O)C(C(=O)CCC(=O)Nc2cccc(Cl)c2)C1 (configuration not stated) | > 562 | > 562 | –
COC1C(C)OC(OC2CC(C)(O)C(C(=O)O)c3cc4c(c(O)c32)C(=O)c2c(O)cc3c(c2C4=O)OC2OC3(C)C(O)C(N(C)C)C2O)C(OC)C1(C)OC (configuration not stated) | – | – | inactive
COC(=O)[C@@H]1C=CCN1S(=O)(=O)c1ccc(C)cc1 | – | – | inactive
CCC(C)C(=Nc1ccc(Cl)c(Cl)c1)N(C)C (configuration not stated) | – | – | inactive
CC1=C(C#N)C2(N)OC1(C)C1C(=O)C=CC(=O)C12 (configuration not stated) | > 200 | 23.4 | –
Cc1cccc2c1C(=O)C1(Cc3ccccc3C1=O)C2 (configuration not stated) | > 200 | > 200 | –
CCOC(=O)Cc1ccc(Nc2nc3cc(C(F)(F)F)ccc3nc2C(=O)OCC)cc1 | > 100 | > 100 | –
Clc1nc2nc3ccccc3nc2nc1Cl | > 100 | 77.6 | –
C[C@@H](c1ccccc1)N1C[C@@H](c2ccc3c(c2)OCO3)[C@@H]2C(=O)CCC[C@@H]21 | > 200 | 112 | –
NC(N)=NS(=O)(=O)c1ccc(NC(=O)c2cccn3c(=O)c4ccccc4nc23)cc1 | – | – | inactive
O=C(NC/C(Br)=C/Br)Nc1cccc2ccccc12 | 148 | > 200 | –
CCCCCCCCCCC(c1ccc(O)c(C(=O)O)c1)c1ccc(O)c(C(=O)O)c1 | > 447 | 107 | –
CCNC(=O)OCc1cnc(C)c(O)c1COC(=O)NCC | > 200 | > 200 | –
CN(/N=C(\C(=O)O)c1ccccc1)C1=NCCCN1 | > 200 | > 200 | –
CCOC(=O)Cc1csc2[n+]1C(=O)/C(=C\c1cccc(Cl)c1Cl)S2 | > 200 | 21.4 | –
Cc1ccc2nc3c(Cl)c(C)c(=O)cc-3sc2c1 | > 13.5 | > 13.5 | –
COc1ccc(S(=O)(=O)Cc2ccc(C(=O)O)cc2[N+](=O)[O-])cc1 | > 708 | 646 | –
O=C(c1ccccc1)[C@@]12COc3ccccc3[C@@H]1ON=C2c1ccccc1 | > 10.7 | > 10.7 | –
CC(C)CCCC(C)C1CCC2C3CCC(=O)C(C)(CCCNCCO)C3CCC12C (configuration not stated) | > 20 | 2.88 | –
O=c1[nH]c2cc(F)c(F)cc2nc1Cc1ccccc1 | > 200 | 132 | –
Cc1ccc(-n2nncc2[Si](C)(C)C)s1 | > 200 | 148 | –
Cc1cc(C)c(NC(=O)c2ccccc2)c(=O)o1 | > 200 | > 200 | –

SMILES | EC50 [µM] | IC50 [µM] | outcome
CCOC(=O)/C(=C\c1ccc(Br)cc1)P(=O)(OCC)OCC | > 331 | 6.76 | –
CC(C)/C=N\N1C(N)=C(C#N)C(C#N)(C#N)C1C(C)C (configuration not stated) | > 200 | 41.7 | –
CC1=CC(=O)/C(=C/N2C(=S)NC(=O)/C2=C/c2cccc([N+](=O)[O-])c2)C(=O)O1 | > 200 | 138 | –
C=CCc1cc(OC)c2c(c1)C(O)CC(c1ccccc1)O2 (configuration not stated) | > 170 | > 170 | –
O=c1/c(=C/c2ccccc2[N+](=O)[O-])sc2nnc(-c3cccnc3)n12 | > 186 | > 186 | –
C[C@@]1(CO[N+](=O)[O-])OC(=O)N2CCC[C@H]21 | > 1150 | > 1150 | –
O=C1COc2cc(N3CCN(c4cccc(C(F)(F)F)c4)CC3)ccc2N1 | > 200 | > 200 | –
Cc1ccc(/C=N/n2c(Cc3ccccc3)n[nH]c2=O)cc1 | > 200 | > 200 | –
C/C=C1/CN2CCc3c4n(c5ccccc35)[C@@H](CO)C1CC42 (some centres not stated) | > 61.7 | > 61.7 | –
OC12COc3ccccc3C1Oc1ccccc1C2 (configuration not stated) | – | – | inactive
O=C(Nc1ccc(CN2CCOCC2)cc1)c1ccc(C(=O)Nc2ccc(CN3CCOCC3)cc2)cc1 | > 200 | > 200 | –
O=C(Cc1ccccc1)NCCc1ccc(O)c(O)c1 | > 200 | 27.5 | –
COc1ccccc1OS(=O)(=O)c1ccc(C)cc1 | – | – | inactive
NC1=NC(N)=N1 | > 2950 | > 2950 | –
CC(=O)OC1CCC2(C)C(C1)CC(OC(C)=O)C1C2CC(OC(C)=O)C2(C)C(C(C)CC(=O)C(=O)c3ccccc3)CCC12 (configuration not stated) | > 6.17 | 2.63 | –
NC(CNC(=O)CBr)C(=O)O (configuration not stated) | > 813 | 155 | –
CCC1(CC(=O)N(C)C)C=CCN(C(=O)Oc2ccccc2)C1 (configuration not stated) | > 58.9 | > 58.9 | –
O=C1/C(=C/c2cccc([N+](=O)[O-])c2)COc2ccccc21 | > 12.9 | 1.51 | –
COc1ccc2nc(N/N=C/C(C)=N/Nc3cc(C)c4cc(OC)ccc4n3)cc(C)c2c1 | > 100 | 14.5 | –
COC1CCC(O)C(CO)O1 (configuration not stated) | – | – | inactive
COC(=O)n1c(=O)nc2c3c(ncn21)Oc1c(c(-c2ccccc2)nn1-c1ccccc1)C3c1ccc(Cl)cc1 (configuration not stated) | > 100 | 2.34 | –
CCOC(=O)c1ccc(N=C2SC(=S)N(c3ccc(F)cc3)C2=Nc2ccc(C(=O)OCC)cc2)cc1 | > 20 | 6.76 | –
Cn1c(NNc2ccccc2)cc(=O)[nH]c1=O | > 200 | 28.8 | –

SMILES | EC50 [µM] | IC50 [µM] | outcome
CCOC(=O)/C=C\SCCC(=O)O | > 1230 | > 1230 | –
Cc1c(N2C(=O)/C(=C/c3ccc(N(CCC#N)CCC#N)cc3)N=C2c2ccccc2)c(=O)n(-c2ccccc2)n1C | > 200 | 186 | –
O=[N+]([O-])c1cc(F)ccc1Sc1ccccc1 | > 200 | 95.5 | –
Brc1ccc(C2SCc3nc4ccccc4n32)cc1 (configuration not stated) | – | – | inactive
C1CCC(N=C(NC2CCCCC2)N2CCOCC2)CC1 | > 200 | 135 | –
O=C(CNc1ccccc1[N+](=O)[O-])Nn1c(-c2ccccc2)nc2ccccc2c1=O | > 200 | 11.7 | –
CCC(CC)(CC(=O)O)CC(=O)O | – | – | inactive
O=[N+]([O-])C(C(Cl)=C(Cl)Cl)=C(N1CCOCC1)N1CCOCC1 | > 200 | 123 | –
COC(=N)CCNC(=O)C(O)C(O)C(=O)NCCC(=N)OC (configuration not stated) | > 646 | > 646 | –
CS(=O)(=O)NNS(=O)(=O)c1ccc(F)cc1 | > 251 | > 251 | –
CC(=O)OC1C(COC(N)=O)OC(n2c(-c3ccc(C)cc3)cc(-c3ccccc3)c(C#N)c2=O)C(OC(C)=O)C1OC(C)=O (configuration not stated) | > 11.5 | > 11.5 | –
NCCCN(CCCCN(CCCN)Cc1ccc2ccccc2c1)Cc1ccc2ccccc2c1 | > 200 | 1.07 | –
CC1CCc2ccccc2O1 (configuration not stated) | > 200 | > 200 | –
Cc1cc(Br)cc(C)c1NC(=O)C(=O)CC(=O)c1sc(-n2nc(-c3ccccc3)cc2-c2ccccc2)nc1C | – | – | inactive
O=C1CC2(c3ccccc3)CCCCC2=NN1 (configuration not stated) | > 200 | > 200 | –
CN/N=C(/Cc1occc(=O)c1O)C(=O)Nc1ccccc1C | > 794 | 724 | –
Cc1coc2c1[C@@H](O)[C@]1(C)[C@@H](C)CC[C@H](O)[C@]1(O)C2 | > 200 | > 200 | –
CC(O)CS(=O)(=O)O (configuration not stated) | > 200 | > 200 | –
N#C/C(=C/NC(=S)Nc1ccc(S(N)(=O)=O)cc1)C(N)=O | > 200 | 178 | –
COc1ccc(-c2nnc(CCCCCCCCc3nnc(-c4ccc(OC)cc4)o3)o2)cc1 | > 200 | > 200 | –
CN1CN(c2ccccc2)C2(CCN(CCc3cc4ccccc4o3)CC2)C1=O | > 200 | 8.13 | –
